Where two headings read alike, the source gives them in different places.
Key:
5-HT2C [1] = molecular target: T1, 5-HT2C (Homo sapiens, UniProt P28335); assay: cell-based; design: expressed in transfected cells; host or cells: HEK293; Emax: dose or concentration left out as unconfirmed
T1 sequence (P28335 33-458): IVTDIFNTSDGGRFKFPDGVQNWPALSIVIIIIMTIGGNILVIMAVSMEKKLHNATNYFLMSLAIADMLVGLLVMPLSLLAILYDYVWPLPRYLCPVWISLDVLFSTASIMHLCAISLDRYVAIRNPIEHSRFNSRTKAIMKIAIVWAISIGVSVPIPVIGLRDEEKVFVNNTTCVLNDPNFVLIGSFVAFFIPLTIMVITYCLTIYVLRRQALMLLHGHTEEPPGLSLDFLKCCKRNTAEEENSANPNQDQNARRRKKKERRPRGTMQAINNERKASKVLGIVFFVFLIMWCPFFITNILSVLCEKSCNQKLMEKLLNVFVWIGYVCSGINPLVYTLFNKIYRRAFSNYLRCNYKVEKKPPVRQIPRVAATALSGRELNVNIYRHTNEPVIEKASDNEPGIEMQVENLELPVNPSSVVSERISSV

5-HT2C [2] = molecular target: T1, 5-HT2C; assay: In vitro receptor binding ([3H]-LSD), 5-HT2C; design: expressed in transfected cells; host or cells: HEK293 (membranes); conditions: for Binding ([3H]-LSD) % Inh: 5-HT2C, HEK293 membrane, radioligand 3H-LSD; for affinity at 5-HT2C: in words; for affinity selectivity for 5-HT2C over 5-HT2A: ratio of Ki
5-HT2B [3] = molecular target: T2, 5-HT2B (Homo sapiens, UniProt P41595); assay: In vitro receptor binding ([3H]-LSD), 5-HT2B; design: expressed in transfected cells; host or cells: HEK293 (membranes); conditions: for Binding ([3H]-LSD) % Inh: 5-HT2B, HEK293 membrane, radioligand 3H-LSD; for affinity at 5-HT2B: in words
T2 sequence (P41595 whole entry): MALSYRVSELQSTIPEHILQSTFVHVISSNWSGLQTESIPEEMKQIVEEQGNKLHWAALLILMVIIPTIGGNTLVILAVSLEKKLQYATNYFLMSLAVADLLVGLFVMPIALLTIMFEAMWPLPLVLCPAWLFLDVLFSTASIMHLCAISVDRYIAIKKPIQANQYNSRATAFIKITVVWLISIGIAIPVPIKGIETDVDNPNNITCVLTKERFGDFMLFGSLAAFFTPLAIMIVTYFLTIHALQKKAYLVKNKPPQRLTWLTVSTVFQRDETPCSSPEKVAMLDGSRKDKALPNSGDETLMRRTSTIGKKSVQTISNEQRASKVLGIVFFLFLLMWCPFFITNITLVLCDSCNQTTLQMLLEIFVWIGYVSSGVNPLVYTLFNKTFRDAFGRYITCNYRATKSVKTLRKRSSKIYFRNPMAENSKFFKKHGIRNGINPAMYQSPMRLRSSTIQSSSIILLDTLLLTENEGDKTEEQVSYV

5-HT2A [4] = molecular target: T3, 5-HT2A (Homo sapiens, UniProt P28223); assay: cell-based; type: cell-based; design: expressed in transfected cells; host or cells: HEK293; Emax: dose or concentration left out as unconfirmed
T3 sequence (P28223 whole entry): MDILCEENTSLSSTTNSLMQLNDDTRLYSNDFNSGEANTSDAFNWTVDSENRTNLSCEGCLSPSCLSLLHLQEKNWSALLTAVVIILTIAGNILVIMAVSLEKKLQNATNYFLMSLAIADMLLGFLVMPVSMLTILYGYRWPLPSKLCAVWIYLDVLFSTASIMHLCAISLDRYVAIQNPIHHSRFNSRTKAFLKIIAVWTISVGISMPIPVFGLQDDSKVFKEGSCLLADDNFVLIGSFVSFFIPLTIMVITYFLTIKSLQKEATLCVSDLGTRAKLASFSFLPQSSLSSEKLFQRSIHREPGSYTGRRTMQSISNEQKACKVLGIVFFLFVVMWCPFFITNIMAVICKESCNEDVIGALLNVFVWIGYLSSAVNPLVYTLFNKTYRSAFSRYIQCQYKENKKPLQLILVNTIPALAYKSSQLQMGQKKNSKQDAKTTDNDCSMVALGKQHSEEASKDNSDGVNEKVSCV

5-HT2B [5] = molecular target: T2, 5-HT2B; assay: cell-based; type: cell-based; design: expressed in transfected cells; host or cells: HEK293; Emax: dose or concentration left out as unconfirmed
5-HT2A [6] = molecular target: T3, 5-HT2A; assay: biochemical; type: binding; design: expressed in transfected cells; host or cells: HEK293 (membranes)
[7] = system: TNF-α induced inflammation; conditions: Yu et al. 2008; cited from earlier work
5-HT2A receptor = conditions: Flanagan et al. 2020; cited from earlier work

| SMILES | Bottom (5-HT2C [1]) | HillSlope (5-HT2C [1]) | EC50 (5-HT2C [1]; EC50) | Emax (5-HT2C [1]; HEK293, read-out: IP-One % MAX) | EC50 (5-HT2C [1]; IP-One EC50) | Emax (5-HT2C [1]; read-out: Top) | Ki (5-HT2C [2]) | Binding ([3H]-LSD) % Inh (5-HT2C [2]) | affinity at 5-HT2C (5-HT2C [2]) | affinity selectivity for 5-HT2C over 5-HT2A (5-HT2C [2]) | Ki (5-HT2B [3]) | Binding ([3H]-LSD) % Inh (5-HT2B [3]) | Bottom (5-HT2A [4]) | HillSlope (5-HT2A [4]) | functional selectivity for 5-HT2A over 5-HT2C (5-HT2A [4]) | EC50 (5-HT2A [4]; EC50) | Emax (5-HT2A [4]; HEK293, read-out: IP-One % MAX) | EC50 (5-HT2A [4]; IP-One EC50) | Emax (5-HT2A [4]; read-out: Top) | Bottom (5-HT2B [5]) | further results |
| --- | --- | --- | --- | --- | --- | --- | --- | --- | --- | --- | --- | --- | --- | --- | --- | --- | --- | --- | --- | --- | --- |
| COc1cc(I)c(OC)c2c1C(CN)C2 (stereo not drawn) [Compound 2, (3-iodo-2,5-dimethoxybicyclo[4.2.0]octa-1,3,5-trien-7-yl)methanamine] | 3.427 % of control | 1.279 | 58 nM | 122% | 41 nM | 136% | 3 nM | 96% | low nanomolar affinity | approximately 6 fold | 28 nM | 77% | 5.304 % of control | 1.338 | approximately 4 fold | 10.1 nM | 127% | 10 nM | 124% | 3.780 % of control | affinity at 5-HT2B (5-HT2B [3]): low nanomolar affinity; HillSlope (5-HT2B [5]): 1.531; functional activity at 5-HT2B (5-HT2B [5]): minimal functional activity; EC50 (5-HT2B [5]; EC50): 89.1 nM; Emax (5-HT2B [5]; HEK293, read-out: IP-One % MAX): 49%; EC50 (5-HT2B [5]; IP-One EC50): > 300 nM; Emax (5-HT2B [5]; read-out: Top): 56.2%; Binding ([3H]-LSD) % Inh (5-HT2A [6]): 2A: 17 nM (96%); Ki (5-HT2A [6]): 17 nM; affinity at 5-HT2A (5-HT2A [6]): low nanomolar affinity; affinity selectivity for 5-HT2A over 5-HT2B (5-HT2A [6]): approximately 1.6 fold |
| COc1cc(Br)c(OC)c2c1[C@H](CN)C2 [Compound 2C-BCB] | – | – | – | – | – | – | – | – | – | – | – | – | – | – | – | – | – | – | – | – | effect on TNF-α induced inflammation [7]: same effect, albeit slightly less potent |
| COc1ccc(OC)c(CCN)c1 [Compound 2C-H, 2,5-dimethoxyphenethylamine] | – | – | – | – | – | – | – | – | – | – | – | – | – | – | – | – | – | – | – | – | anti-inflammatory pharmacophore (5-HT2A receptor): primary pharmacophore for anti-inflammatory phenethylamine 5-HT2A receptor agonists |
| CCc1cc(OC)c2c(c1OC)CC2CN (stereo not drawn) [Compound 4, (3-ethyl-2,5-dimethoxybicyclo[4.2.0]octa-1,3,5-trien-7-yl)methanamine] | 1.236 % of control | 1.410 | 10.8 nM | 104% | 11 nM | 102% | 4 nM | 89% | low nanomolar affinity | approximately 6.5 fold | 43 nM | 73% | −0.4425 % of control | 1.033 | approximately 2.75 fold | 3.77 nM | 114% | 4 nM | 108% | −0.2984 % of control | affinity at 5-HT2B (5-HT2B [3]): low nanomolar affinity; functional selectivity for 5-HT2A over 5-HT2B (5-HT2A [4]): approximately 17.5 fold; HillSlope (5-HT2B [5]): 1.088; functional activity at 5-HT2B (5-HT2B [5]): significant functional activity; EC50 (5-HT2B [5]; EC50): 27.4 nM; Emax (5-HT2B [5]; HEK293, read-out: IP-One % MAX): 70%; EC50 (5-HT2B [5]; IP-One EC50): 70 nM; Emax (5-HT2B [5]; read-out: Top): 72.8%; Binding ([3H]-LSD) % Inh (5-HT2A [6]): 2A: 26 nM (90%); Ki (5-HT2A [6]): 26 nM; affinity at 5-HT2A (5-HT2A [6]): low nanomolar affinity; affinity selectivity for 5-HT2A over 5-HT2B (5-HT2A [6]): approximately 1.6 fold |
| COc1cc(CC(C)C)c(OC)c2c1C(CN)C2 (stereo not drawn) [Compound 8, (3-isobutyl-2,5-dimethoxybicyclo[4.2.0]octa-1,3,5-trien-7-yl)methanamine] | 2.175 % of control | 1.285 | 8.73 nM | 117% | 9 nM | 120% | 4 nM | 93% | low nanomolar affinity | approximately 33 fold | > 95 nM | 29% | 2.988 % of control | 1.426 | approximately 4.5 fold | 2.4 nM | 113% | 2 nM | 120% | −0.5387 % of control | functional selectivity for 5-HT2A over 5-HT2B (5-HT2A [4]): approximately 148.5 fold; HillSlope (5-HT2B [5]): 0.5893; functional activity at 5-HT2B (5-HT2B [5]): moderate functional activity; EC50 (5-HT2B [5]; EC50): 261000 nM; Emax (5-HT2B [5]; HEK293, read-out: IP-One % MAX): 51%; EC50 (5-HT2B [5]; IP-One EC50): 297 nM; Emax (5-HT2B [5]; read-out: Top): 51.2%; Binding ([3H]-LSD) % Inh (5-HT2A [6]): 2A: 133 nM (65%); Ki (5-HT2A [6]): 133 nM |
| CC1CC(C)N1C(=O)[C@@H]1C=C2c3cccc4[nH]cc(c34)C[C@H]2N(C)C1 (stereo partly drawn) [LA-SS-Az, lysergic acid 2,4-dimethylazetidide] | – | – | – | – | – | – | – | – | – | – | – | – | – | – | – | – | – | – | – | – | effect on TNF-α induced inflammation [7]: same effect, albeit slightly less potent |
| CCN(CC)C(=O)[C@@H]1C=C2c3cccc4[nH]cc(c34)C[C@H]2N(C)C1 [LSD, lysergic acid diethylamide] | – | – | – | – | – | – | – | – | – | – | – | – | – | – | – | – | – | – | – | – | effect on TNF-α induced inflammation [7]: same effect, albeit slightly less potent |

Source: patent US20260308109A1 (priority 2022, published 2026)
